Assay results as given in the supplement of paper PMC10307832.

How the values were obtained:
Test in all cases: relative viability (nuclei count vs DMSO), 5 days (fraction); higher = more cells survive
Metformin + Palbociclib = compound: CN(C)C(=N)NC(=N)N [Metformin] + CC(=O)c1c(C)c2cnc(Nc3ccc(N4CCNCC4)cn3)nc2n(C2CCCC2)c1=O [Palbociclib] (partner 0.5 µM)
Method in brief: (§1)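 Values are medians from duplicate plates. Each reflects relative viability, defined as the nuclei count of treated wells over that of vehicle wells. Lung cancer cell lines in 1536-well plates were pin-tool dosed one day after seeding with one drug alone or with a fixed anchor-drug dose plus five library-drug doses (not always all listed) in √10 steps, then fixed, stained and imaged at 4× after 5 days.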

Metformin + Pemetrexed = compound: CN(C)C(=N)NC(=N)N [Metformin] + Nc1nc2[nH]cc(CCc3ccc(C(=O)N[C@@H](CCC(=O)O)C(=O)O)cc3)c2c(=O)[nH]1 [Pemetrexed] (partner 0.2 µM)
Method in brief: as §1

Apatinib + Alpelisib = compound: N#CC1(c2ccc(NC(=O)c3cccnc3NCc3ccncc3)cc2)CCCC1 [Apatinib] + Cc1nc(NC(=O)N2CCC[C@H]2C(N)=O)sc1-c1ccnc(C(C)(C)C(F)(F)F)c1 [Alpelisib] (partner 2 µM)
Method in brief: as §1

Apatinib + Decitabine = compound: N#CC1(c2ccc(NC(=O)c3cccnc3NCc3ccncc3)cc2)CCCC1 [Apatinib] + Nc1ncn([C@H]2C[C@H](O)[C@@H](CO)O2)c(=O)n1 [Decitabine] (partner 2 µM)
Method in brief: as §1

Cell Line | relative viability (Metformin + Palbociclib; first compound 10 µM) | relative viability (Metformin + Palbociclib; first compound 31.62 µM) | relative viability (Metformin + Palbociclib; first compound 100 µM) | relative viability (Metformin + Palbociclib; first compound 316.23 µM) | relative viability (Metformin + Palbociclib; first compound 1000 µM) | relative viability (Metformin + Pemetrexed; first compound 10 µM) | relative viability (Metformin + Pemetrexed; first compound 31.62 µM) | relative viability (Metformin + Pemetrexed; first compound 100 µM) | relative viability (Metformin + Pemetrexed; first compound 316.23 µM) | relative viability (Metformin + Pemetrexed; first compound 1000 µM) | relative viability (Apatinib + Alpelisib; first compound 0.08 µM) | relative viability (Apatinib + Alpelisib; first compound 0.253 µM) | relative viability (Apatinib + Alpelisib; first compound 0.8 µM) | relative viability (Apatinib + Alpelisib; first compound 2.53 µM) | relative viability (Apatinib + Alpelisib; first compound 8 µM) | relative viability (Apatinib + Decitabine; first compound 0.08 µM) | relative viability (Apatinib + Decitabine; first compound 0.253 µM) | relative viability (Apatinib + Decitabine; first compound 0.8 µM) | relative viability (Apatinib + Decitabine; first compound 2.53 µM) | relative viability (Apatinib + Decitabine; first compound 8 µM)
BEN | 0.503 | 0.529 | 0.523 | 0.436 | 0.456 | 1.11 | 1.08 | 0.733 | 0.812 | 0.64 | 1.04 | 0.92 | 0.983 | 0.862 | 0.727 | 0.694 | 0.668 | 0.672 | 0.693 | 0.723
NCI-H520 | 0.271 | 0.269 | 0.277 | 0.22 | 0.269 | 0.656 | 0.593 | 0.688 | 0.657 | 0.689 | 0.924 | 0.865 | 0.918 | 0.685 | 0.633 | 0.544 | 0.476 | 0.559 | 0.5 | 0.486
NCI-H2023 | 0.321 | 0.341 | 0.3 | 0.285 | 0.237 | 0.185 | 0.219 | 0.226 | 0.187 | 0.205 | 0.64 | 0.675 | 0.587 | 0.514 | 0.559 | 0.233 | 0.261 | 0.269 | 0.307 | 0.472
NCI-H1793 | 0.297 | 0.39 | 0.387 | 0.353 | 0.361 | 1.16 | 0.826 | 1.23 | 0.874 | 1.22 | 0.576 | 0.727 | 0.471 | 0.481 | 0.593 | 0.555 | 0.535 | 0.516 | 0.541 | 0.564
NCI-H838 | 0.295 | 0.278 | 0.261 | 0.271 | 0.298 | 0.28 | 0.266 | 0.278 | 0.266 | 0.271 | 1.06 | 1.03 | 0.935 | 0.958 | 0.942 | 0.489 | 0.48 | 0.493 | 0.442 | 0.469
SW 1573 | 0.378 | 0.364 | 0.321 | 0.252 | 0.264 | 0.728 | 0.817 | 0.668 | 0.725 | 0.743 | 0.829 | 0.917 | 0.757 | 0.761 | 0.595 | 0.77 | 0.615 | 0.593 | 0.513 | 0.603
HCC-15 | 0.726 | 0.807 | 0.716 | 0.562 | 0.831 | 0.233 | 0.21 | 0.207 | 0.228 | 0.22 | 0.911 | 0.904 | 0.839 | 0.891 | 0.705 | 0.703 | 0.656 | 0.638 | 0.604 | 0.606
NCI-H1666 | 0.695 | 0.616 | 0.642 | 0.681 | 0.714 | 0.825 | 0.862 | 0.854 | 0.871 | 0.928 | 0.943 | 1.01 | 0.936 | 0.979 | 0.943 | 0.756 | 0.727 | 0.692 | 0.737 | 0.612
A-427 | 0.501 | 0.546 | 0.516 | 0.53 | 0.389 | 0.972 | 1.05 | 1 | 1 | 0.878 | 1.14 | 1.02 | 1.19 | 1.02 | 1 | 0.604 | 0.583 | 0.533 | 0.575 | 0.618
LU99A | 0.387 | 0.352 | 0.347 | 0.35 | 0.31 | 0.152 | 0.212 | 0.157 | 0.168 | 0.164 | 0.565 | 0.618 | 0.457 | 0.49 | 0.461 | 1.01 | 1.01 | 0.843 | 0.895 | 0.774
EPLC-272H | 0.294 | 0.32 | 0.339 | 0.311 | 0.391 | 0.467 | 0.345 | 0.429 | 0.394 | 0.39 | 1.04 | 0.904 | 0.841 | 0.971 | 0.903 | 0.395 | 0.324 | 0.405 | 0.307 | 0.342
